Results on one molecule are retold here after ChEMBL document CHEMBL3862043, “Fluorescent Inhibitors as Tools To Characterize Enzymes: Case Study of the Lipid Kinase Phosphatidylinositol 4-Kinase IIIβ (PI4KB)” (J Med Chem, 2017).

A short description of this series: Drug uptake in vesicles of HeLa cells transfected with iRFP-tagged PI4KB (unknown origin) incubated for 30 mins by fluorescence spectroscopy. Particulars: human, 0.5 h; call rule not given here. It is filed as ADME, cell-based.

Turning to `CCc1cc(CNc2cc(Cl)nn3c(-c4ccc(OC)c(S(=O)(=O)NCc5cn(-c6cc7ccc(O)cc7oc6=O)nn5)c4)c(C)nc23)ccn1`, the Drug uptake entry is listed as “Active”.
